The record followed here is US20060229239A9, “Novel curcuminoid-factor VIIa constructs as suppressors of tumor growth and angiogenesis” (priority 2002, published 2006).

Marks after values point to notes of the source that are not given here.

In one data set the test system is MS-1 cells. The experiment in a line: Neutral Red viability assay, MS-1 cells. The format is cell-based, murine. Particulars: 24 hrs. As for the experimental part:
(§1) HUVECs, MS-1 cells and SVR cells were cultured to confluence and agents were incubated for 24 hrs. Cell viability was determined by Neutral Red assays. Among synthetic curcumin analogs, A279L, A279U and EF-15 were not cytotoxic at 20 μM. MS-I cells were murine vascular endothelial cells which were immortalized by transfection of SV40 large T antigen but are non-maligant. However, when MS-1 cells were transfected with a ras mutant gene, cells were transformed to become malignant angiosarcoma cells, (SVR cells).

The next data set deals with SVR cells. Kind of data set: Neutral Red viability assay, SVR cells. Particulars: 24 hrs. Format: cell-based, murine. As for the experimental part:
as §1

In data set [1] the test system is HUVECs. The experiment in a line: Neutral Red viability assay, HUVECs. Format: cell-based, human. Conditions: 24 hrs. The protocol: as §1
The next data set deals with DU145. Kind of data set: SRB viability test, DU145 human prostate cancer cell line expressing tissue factor. Format: cell-based. Particulars: for O.D. 570 nm, SRB Viability Test: 48 hrs, Mean S.D. The protocol:
DU145 cells were plated with 2×10^4 cells/100 μl/well in a 96 well plate and cultured overnight. The cells were cultured for 48 hrs. Cultures was terminated by adding 40% TCA to a final concentration of 10%. Cells were fixed in TCA at 4° for 1 hr, washed with tap water 5 times and air dried. Sulforhodamine B (SRB) solution (100 μl) at 0.4% (w/v) in 1% acetic acid was added to each well, and the cells were incubated for 10 mins at room temperature. After staining, unbound dye was removed by washing five times with 1% acetic acid and air dried. […] Assays were performed in triplicate or quadruplicate. An asterisk (*) indicates p<0.0001 by the Student t-test (two-tailed probability). The concentration of EF24-FFRck-fVIIa was estimated based on protein concentration.

For a further data set, the system named is RPMI-7951. Kind of data set: Neutral Red (NR) viability test, human melanoma RPMI-7951. Format: cell-based. Conditions: Mean ± S.E. The protocol: (§2) The Neutral Red (NR) dye viability assay, instead of the Sulforhodamine B (SRB) assay, was used. In the NR viability assay, NR dye is taken up only by viable cells, while in the SRB viability assay, viable cells are fixed by trichloracetic acid (TCA) on the plate (thus, cells are killed), and the fixed cells are stained by SRB dye.
(§3) At the termination of culture, medium was removed and 200 μl of fresh, warm medium containing 50 μg of NR/ml was added to each well in a 96-well plate. Cells were incubated at 37° for 30 mins, followed by two washes with 200 μl of PBS. The NR taken up by cells was dissolved by adding 200 μl of 0.5N HCI containing 35% ethanol. The amount of the dye in each well was read at 570 nm by an ELISA plate reader.

The subject of data set [2] is cells with or without tissue factor on the cell surface. Kind of data set: Cell killing in relation to tissue factor expression on the cell surface (summary). Format: cell-based. The source says: One aspect of the present invention provides novel compositions comprising cytotoxic compounds such as synthetic antitumor and anti-angiogenesis curcumin analogs (curcuminoids) linked to a protein delivery vehicle that can deliver the cytotoxic compoun specifically to cancer cells and vascular endothelial cells having surface-bound tissue factor. Novel compositions of the present invention can comprise a curcuminoid covalently linked to a tether which may be, but is not limited to, a dicarboxylic acid such as succinate. The tether is covalently linked to a N-terminal amino acid of a peptidyl linker such as phenylalanine-phenylalanine-arginine, the C-terminal amino acid of which comprises a methylketone. […] Preferably, the curcuminoid-tether-linker will have bonded to an amino acid of the serine protease domain of the fVIIa, thereby blocking the procoagulating activity of the novel therapeutic composition. The present invention also provides methods of synthesis of cytotoxic compound-protein conjugates. The compositions and methods of the present invention may increase the efficacy of the cytotoxic agents and decrease their side effects by delivering the agents to specific target cells. […] The conjugate EF24-FFRck-fVIIa construct of the present invention kills cancer cell lines and vascular endothelial cells, such as HUVECs, that express tissue factor on the cell surface.

The subject of a further data set is normal human melanocytes. The experiment in a line: NR viability test, normal human melanocytes (no tissue factor). Format: cell-based. Conditions: Mean ± S.D. The protocol:
as §2, §3

The test system of another data set is MDA-MB-231. The experiment in a line: Neutral Red (NR) viability test, human breast cancer MDA-MB-231. The format is cell-based. Particulars: Mean ± S.E. The protocol:
as §2, §3

The subject of another data set is MCF10. Kind of data set: NR viability test, MCF10 normal human breast luminal ductal cell line (no tissue factor). Conditions: Normal Breast Cells (MCF10), Mean ± S.D. The format is cell-based. The protocol:
as §2, §3

The test system of data set [3] is HUVECs. Kind of data set: SRB viability test (NCI method), normal HUVECs not expressing tissue factor. Format: cell-based, human. Conditions: Mean ± S.D.
The next data set can be described thus: Cell cytotoxicity assays. Format: cell-based. The protocol: Of several compounds examined, the succinic acid derivative aa (86% yield) was suitable since it retained 50% of the activity of EF24 in cell cytotoxicity assays. To synthesize the succinyl derivative aa of EF24, to a solution of EF24 (0.16 g, 0.5 mmol) in anhydrous CH2Cl2 (6 ml) was added succinic anhydride (0.057 g, 0.5 mmol) and Et3N (101 mg, 1 mmol). The mixture was stirred at room temperature for 3 hrs, diluted with CH2Cl2, washed twice with saturated NaHCO3 (2×10 ml) and brine, dried over anhydrous Na2SO4, and relieved of solvent by evaporation. The resulting solid was purified by flash chromatography using benzene/acetone/acetic acid (27:10:0.5) as the eluant to obtain the yellow solid aa ([…], mp 145° C., 86% yield). [drawing 15]

The test system of another data set is tumor cells. The experiment in a line: NCI screening system, tumor cells. The format is cell-based. As for the experimental part: Curcumin, EF24 and cisplatin were tested against tumor cells in the NCI screening system. Curcuminoids were also added to transformed breast cancer cells and the mean growth inhibitory concentrations determined, as shown in FIG. 5.

Regarding `COc1cc(/C=C/C(=O)CC(=O)/C=C/c2ccc(O)c(OC)c2)ccc1O` [Curcumin, diferuloylmethane], the “Neutral Red Viability Assay (% of Control)” value in the data set on MS-1 cells (1 μM) is 90 % of Control; with MS-1 cells (20 μM), 3 % of Control; in the data set on SVR cells (1 μM) it was 88 % of Control; with SVR cells (20 μM) it was 4 % of Control; with HUVECs [1] (1 μM) it was 103 % of Control; in the data set with HUVECs [1] (20 μM), 21 % of Control.

Consider `N=C(N)NCCC[C@H](NC(=O)[C@H](Cc1ccccc1)NC(=O)[C@@H](Cc1ccccc1)NC(=O)CCC(=O)N1C/C(=C\c2ccccc2F)C(=O)/C(=C/c2ccccc2F)C1)C(=O)CCl` [EF24-FFRck], for which the “O.D. 570 nm, SRB Viability Test” value in the data set with DU145 (DU145, 0.8 pM) came to 0.389 ± 0.021; in the data set on DU145 (DU145, 8 pM), 0.383 ± 0.027. Moreover, the cell killing entry in the data set with DU145 (EF24-FFRck alone, Table 2) is listed as “does not kill any cells”. Besides, the “O.D. 570 nm, NR Viability Test” value is 0.253 ± 0.018 with RPMI-7951 (RPM17951, 1 pM); 0.247 ± 0.020 in the data set with RPMI-7951 (RPM17951, 2 pM); 0.191 ± 0.013 in the data set with MDA-MB-231 (MDA231, 1 pM); 0.171 ± 0.009 in the data set on MDA-MB-231 (MDA231, 2 pM). In addition, in data set [2], the “killing of cancer cells and normal cells regardless of tissue factor expression” value is “does not kill”. Also, the “O.D 570 nm, NR Viability Test” value stood at 0.252 ± 0.007 with normal human melanocytes (0.8 pM), 0.249 ± 0.015 with normal human melanocytes (4 pM), 0.101 ± 0.013 in the data set on MCF10 (0.8 pM) and 0.113 ± 0.003 with MCF10 (4 pM). Moreover, the “O.D. 490 nm, SRB Viability Test” value in the data set with HUVECs [3] (0.8 pM) was determined as 0.152 ± 0.026; in the data set on HUVECs [3] (8 pM), 0.160 ± 0.038.

Consider `O=C(O)CCC(=O)N1C/C(=C\c2ccccc2F)C(=O)/C(=C/c2ccccc2F)C1` [aa], for which the “activity retained relative to EF24 in cell cytotoxicity assays” value in the data set “Cell cytotoxicity assays” was 50%.

`O=C1/C(=C/c2ccccc2F)CNC/C1=C\c1ccccc1F` [EF24, 3,5-Bis-(2-fluorobenzylidene)-piperidin-4-one]: the “potency relative to cisplatin” value in the data set with tumor cells is “about 10 times”. Moreover, in the data set with tumor cells (NCI screening system, FIG. 4), the “effectiveness against tumor cells compared with cisplatin or curcumin” value is recorded as “significantly more effective”. In addition, the “O.D. 570 nm, SRB Viability Test” value is listed as 0.391 ± 0.041 in the data set on DU145 (DU145, 0.8 pM) and 0.053 ± 0.025* in the data set on DU145 (DU145, 8 pM). Besides, the “O.D. 570 nm, NR Viability Test” value in the data set with RPMI-7951 (RPM17951, 1 pM) came out at 0.220 ± 0.023; with RPMI-7951 (RPM17951, 2 pM), 0.119 ± 0.018; with MDA-MB-231 (MDA231, 1 pM), 0.172 ± 0.020; in the data set on MDA-MB-231 (MDA231, 2 pM), 0.109 ± 0.014. In data set [2], the “killing of cancer cells and normal cells regardless of tissue factor expression” value is recorded as “indiscriminatingly kills”. The “O.D 570 nm, NR Viability Test” value with normal human melanocytes (0.8 pM) is given as 0.255 ± 0.009; in the data set with normal human melanocytes (4 pM) it was 0.119 ± 0.009; in the data set with MCF10 (0.8 pM), 0.104 ± 0.018; in the data set on MCF10 (4 pM), 0.091 ± 0.007. For the same compound, the “O.D. 490 nm, SRB Viability Test” value with HUVECs [3] (0.8 pM) stood at 0.136 ± 0.010; in the data set on HUVECs [3] (8 pM), 0.038 ± 0.010.
